Data set [1] relates to Gardner lymphosarcoma (GLS). Put plainly: Gardner lymphosarcoma (GLS) transplanted in mice, tumor inhibition or prolongation of survival. It counts as in vivo. The protocol: (§1) The compounds of this invention and those preparable by the process disclosed herein are active against transplanted tumors in mice in vivo.
(§2) The following table--Table 1--gives the results of experiments in which mice bearing transplanted Gardner lymphosarcoma (GLS), C3 H mammary tumor, B16 melanoma, P 1534(J) leukemia, P388 leukemia or 755 adenocarcinoma were treated with a compound of this invention. In the table, column 1 gives the name of the compound; column 2, the tumor system employed; column 3, the dosage schedule and column 4, the percent inhibition of tumor growth or increased life span.

The next data set concerns P388 leukemia. Description: P388 leukemia transplanted in mice, tumor inhibition or prolongation of survival. It counts as in vivo. On the procedure: as §1, §2
Another data set relates to 755 adenocarcinoma. Description: 755 adenocarcinoma transplanted in mice, tumor inhibition or prolongation of survival. It counts as in vivo. The protocol:
as §1, §2

The test system of another data set is P 1534(J) leukemia. Description: P 1534(J) leukemia transplanted in mice, tumor inhibition or prolongation of survival. It counts as in vivo. Particulars: P1534(J). The protocol:
as §1, §2

The subject of another data set is C3 H mammary tumor. Put plainly: C3H mammary tumor transplanted in mice, tumor inhibition or prolongation of survival. It counts as in vivo. The protocol: as §1, §2
A further data set has as its system B16 melanoma. Description: B16 melanoma transplanted in mice, tumor inhibition or prolongation of survival. It counts as in vivo. On the procedure:
as §1, §2

For data set [2], the system named is experimental malignancies. The note with it: naturally-occurring Vinca alkaloids; prior patents; cited from earlier work.
The subject of the next data set is leukemias. The note with it: clinical trial in humans; cited from earlier work.

The structures appear in SMILES notation.

Take `CCC1(O)CC2CN(CCc3c([nH]c4ccccc34)C(C(=O)OC)(c3cc4c(cc3OC)N(C)C3C(O)(C(=O)NCCCCNC(=O)C5(O)C(O)C6(CC)C=CCN7CCC8(c9cc(C%10(C(=O)OC)CC%11CN(CCc%12c%10[nH]c%10ccccc%12%10)CC(O)(CC)C%11)c(OC)cc9N(C)C58)C76)C(O)C5(CC)C=CCN6CCC43C65)C2)C1` (stereo not shown) [1,4-bis(4-Desacetyl VLB C-3 carboxamido)butane disulfate]: in data set [1] (0.4 mg./kg. × 9), the “Percent Inhibition or Prolongation of Survival Time” value was determined as 40%.

As to `CCC1(O)CC2CN(CCc3c([nH]c4ccccc34)C(C(=O)OC)(c3cc4c(cc3OC)N(C)C3C(O)(C(=O)NCCOCCNC(=O)C5(O)C(O)C6(CC)C=CCN7CCC8(c9cc(C%10(C(=O)OC)CC%11CN(CCc%12c%10[nH]c%10ccccc%12%10)CC(O)(CC)C%11)c(OC)cc9N(C)C58)C76)C(O)C5(CC)C=CCN6CCC43C65)C2)C1` (stereo not drawn) [bis[β -(4-Desacetyl VLB C-3 carboxamido)ethyl]ether disulfate], the “Percent Inhibition or Prolongation of Survival Time” value is 53% with P388 leukemia (P388, 0.6 mg./kg. × 3); 77% in the data set on P388 leukemia (P388, 0.9 mg./kg. × 3); 85% in the data set on P388 leukemia (P388, 1.2 mg./kg. × 3); 62% in data set [1] (0.4 mg./kg. × 9). Moreover, the “Toxic (Percent Inhibition or Prolongation of Survival Time)” value in the data set with P388 leukemia (P388, 1.8 mg./kg. × 3) is on record as “Toxic”.

For `CCC1(O)CC2CN(CCc3c([nH]c4ccccc34)C(C(=O)OC)(c3cc4c(cc3OC)N(C)C3C(O)(C(=O)NCC[Se][Se]CCNC(=O)C5(O)C(O)C6(CC)C=CCN7CCC8(c9cc(C%10(C(=O)OC)CC%11CN(CCc%12c%10[nH]c%10ccccc%12%10)CC(O)(CC)C%11)c(OC)cc9N(C)C58)C76)C(O)C5(CC)C=CCN6CCC43C65)C2)C1` (stereo not drawn) [bis[β-(4-Desacetyl VLB C-3 carboxamido)ethyl]diselenide disulfate], the “Percent Inhibition or Prolongation of Survival Time” value in the data set on 755 adenocarcinoma (755, 0.6 mg./kg. × 3) was 26-32%; in the data set with 755 adenocarcinoma (755, 0.9 mg./kg. × 3), 21-62%; in the data set with 755 adenocarcinoma (755, 1.2 mg./kg. × 3), 31-42%; with 755 adenocarcinoma (755, 1.8 mg./kg. × 3) it was 89%; in the data set with P 1534(J) leukemia (1.2 mg./kg. × 3), 21%; with P 1534(J) leukemia (1.8 mg./kg. × 3), 66%. For the same compound, the “Percent Inhibition or Prolongation of Survival Time” value in the data set on C3 H mammary tumor (1.5 mg./kg. × 3) is 56%; in the data set on C3 H mammary tumor (2.0 mg./kg. × 3), 72%; in data set [1] (1.5 mg./kg. × 3) it was 29%; in data set [1] (2.0 mg./kg. × 3) it was 57%; in data set [1] (2.5 mg./kg. × 3) it was 72%. Besides, in the data set with C3 H mammary tumor (2.5 mg./kg. × 3), the “Toxic (Percent Inhibition or Prolongation of Survival Time)” value is “Toxic”.

For the compound `CCC1(O)CC2CN(CCc3c([nH]c4ccccc34)C(C(=O)OC)(c3cc4c(cc3OC)N(C)C3C(O)(C(=O)NCCSSCCNC(=O)C5(O)C(O)C6(CC)C=CCN7CCC8(c9cc(C%10(C(=O)OC)CC%11CN(CCc%12c%10[nH]c%10ccccc%12%10)CC(O)(CC)C%11)c(OC)cc9N(C)C58)C76)C(O)C5(CC)C=CCN6CCC43C65)C2)C1` (stereo not drawn) [bis[β-(4-Desacetyl VLB C-3 carboxamido)ethyl]disulfide disulfate], the “Percent Inhibition or Prolongation of Survival Time” value in the data set with P388 leukemia (P388, 0.6 mg./kg. × 3) is listed as 33-44%; with P388 leukemia (P388, 0.9 mg./kg. × 3), 39-47%; with P388 leukemia (P388, 1.2 mg./kg. × 3), 53-61%; with 755 adenocarcinoma (755, 0.6 mg./kg. × 3), 29-34%; with 755 adenocarcinoma (755, 0.9 mg./kg. × 3) it was 34-54%; in the data set on 755 adenocarcinoma (755, 1.6 mg./kg. × 3) it was 60%. Moreover, the “Percent Inhibition or Prolongation of Survival Time” value is reported as 20-39% in the data set with P 1534(J) leukemia (0.6 mg./kg. × 3); 50-53% with P 1534(J) leukemia (0.9 mg./kg. × 3); 62% in the data set with P 1534(J) leukemia (1.2 mg./kg. × 3); 90-99% in the data set on P 1534(J) leukemia (1.6 mg./kg. × 3); 31-36% in the data set with C3 H mammary tumor (0.9 mg./kg. × 3); 43-100% in data set [1] (0.4 mg./kg. × 9). The “Percent Inhibition or Prolongation of Survival Time” value in data set [1] (0.9 mg./kg. × 3) is 34-46%; in data set [1] (1.2 mg./kg. × 3) it was 62-93%; with B16 melanoma (B16, 0.6 mg./kg. × 3), 118%; in the data set on B16 melanoma (B16, 0.9 mg./kg. × 3) it was 86%; in the data set on B16 melanoma (B16, 1.2 mg./kg. × 3), 24%. Besides, the “Toxic (Percent Inhibition or Prolongation of Survival Time)” value in the data set on P 1534(J) leukemia (1.2 mg./kg. × 3) and with C3 H mammary tumor (1.2 mg./kg. × 3) was “Toxic” throughout. In addition, the “number of indefinite survivors” value in the data set with B16 melanoma (B16, 0.6 mg./kg. × 3) came to 7; in the data set on B16 melanoma (B16, 0.9 mg./kg. × 3), 7; with B16 melanoma (B16, 1.2 mg./kg. × 3) it was 3.

Regarding `CC[C@]1(O)C[C@@H]2CN(CCc3c([nH]c4ccccc34)[C@@](C(=O)OC)(c3cc4c(cc3OC)N(C)[C@H]3[C@@](O)(C(=O)OC)[C@H](OC(C)=O)[C@]5(CC)C=CCN6CC[C@]43[C@@H]65)C2)C1` [vincaleukoblastine], the “active in the treatment of experimental malignancies in animals” value in data set [2] was “active”.

Regarding `CC[C@]1(O)C[C@@H]2CN(CCc3c([nH]c4ccccc34)[C@@](C(=O)OC)(c3cc4c(cc3OC)N(C)[C@H]3[C@@](O)(C(N)=O)[C@H](O)[C@]5(CC)C=CCN6CC[C@]43[C@@H]65)C2)C1` [vindesine, 4-desacetyl VLB C-3 carboxamide], in the data set on leukemias, the effectiveness against leukemias result is on record as “effective against leukemias including vincristine-resistant leukemias” and the “neurotoxicity compared with vincristine” value is reported as “less neurotoxicity than does vincristine”.

The values are drawn from patent US4199504A (priority 1978, dated 1980).
